Results: US8410049B2, “Methods and kits for preventing hypoglycemia” (Cebix, priority 2009, dated 2013)

What was measured:
[1] = C-peptide plasma levels, time-resolved fluoroimmunoassay; format: in vivo, human; conditions: for Increase in pre-dosing morning C-peptide plasma level vs baseline: 4.5 months (visit 3)
Method: The sampling of C-peptide in plasma at visits 2 and 4 coincided with the clinical visit and the time between the most recent administration of the trial drug and sampling varied between patients. Thereby, the result of C-peptide concentrations in plasma was less suitable for pharmacokinetic evaluations, but the results contributed to the assessment of treatment compliance. C-peptide plasma levels were measured at baseline, and after 3 and 6 months of treatment. Analysis was performed by the Department of Clinical Chemistry Karolinska University Hospital, Solna using a time-resolved fluoroimmunoassay (AutoDelfia, Wallac Oy, Turku, Finland). […] The plasma levels of C-peptide attained in this study ranged from about 0.2 nM to a maximum of about 6 nM in the high dose group.

[2] = test system: type 1 diabetes patients with peripheral neuropathy; conditions: in vivo

CC(C)C[C@H](NC(=O)[C@H](C)NC(=O)[C@H](CC(C)C)NC(=O)[C@@H]1CCCN1C(=O)[C@H](CCC(N)=O)NC(=O)[C@H](CC(C)C)NC(=O)[C@H](CO)NC(=O)CNC(=O)[C@H](C)NC(=O)CNC(=O)[C@@H]1CCCN1C(=O)CNC(=O)CNC(=O)CNC(=O)[C@H](CC(C)C)NC(=O)[C@H](CCC(=O)O)NC(=O)[C@@H](NC(=O)[C@H](CCC(N)=O)NC(=O)CNC(=O)[C@@H](NC(=O)[C@H](CCC(N)=O)NC(=O)[C@H](CC(C)C)NC(=O)[C@H](CC(=O)O)NC(=O)[C@H](CCC(=O)O)NC(=O)[C@H](C)NC(=O)[C@@H](N)CCC(=O)O)C(C)C)C(C)C)C(=O)N[C@@H](CCC(=O)O)C(=O)NCC(=O)N[C@@H](CO)C(=O)N[C@@H](CC(C)C)C(=O)N[C@@H](CCC(N)=O)C(=O)O [C-peptide, Recombinant human C-peptide]
0: Number of AEs: Blood glucose fluctuation [2] | Number of AEs: Hypothyroidism [2] | Number of AEs: Increased appetite [2]
1 (1): AEs of any severity: Hyperaesthesia [2] | AEs of any severity: Injection site burning [2] | AEs possibly related to study drug: Hyperaesthesia [2] | AEs possibly related to study drug: Hyperglycemia [2] | AEs possibly related to study drug: Injection site burning [2] | Number of AEs probably/possibly related to study drug: Hyperglycemia [2]
M (3): AEs of moderate intensity (M): Feeling abnormal [2] | AEs of moderate intensity (M): Gastroenteritis [2]
Two SAEs: Serious adverse events (SAEs) [2]
M (1); S (1): AEs of moderate intensity (M): Rib fracture/injury [2] | AEs of severe intensity (S): Hypoglycemia [2] | AEs of severe intensity (S): Rib fracture/injury [2]
2 (2): AEs of any severity: Hyperthermeasthesia [2] | AEs possibly related to study drug: Hyperthermeasthesia [2]
No local reactions: Local reactions ([2]; sc)
no adverse drug reactions: Adverse drug reactions or significant changes in safety variables [2]
M (2): AEs of moderate intensity (M): Myalgia [2] | AEs of moderate intensity (M): Pain in extremity [2]
0.13 ± 0.083 nmol/L: Increase in pre-dosing morning C-peptide plasma level vs baseline ([1]; High-dose C-peptide, n=4)
3: AEs of any severity: Abdominal pain [2] | AEs of any severity: Arthralgia [2] | AEs of any severity: Feeling abnormal [2] | AEs of any severity: Pyrexia [2]
2: AEs of any severity: Back pain [2] | AEs of any severity: Blister [2] | AEs of any severity: Candidiasis [2] | AEs of any severity: Chest pain [2] | AEs of any severity: Exostosis [2] | AEs of any severity: Fatigue [2] | AEs of any severity: Hepatic enzyme increase [2] | AEs of any severity: Hypoaesthesia [2] | AEs of any severity: Hypoglycemic coma [2] | AEs of any severity: Otitis [2] | AEs of any severity: Pharyngitis [2] | AEs of any severity: Pregnancy [2] | AEs of any severity: Reflux gastritis [2] | AEs of any severity: Rib fracture/injury [2] | AEs of any severity: Sinusitis [2] | AEs of any severity: Tonsilitis [2] | AEs of any severity: Tooth infection [2] | Number of AEs: Hypoglycemic coma [2]
M (1): AEs of moderate intensity (M): Abdomnial pain [2] | AEs of moderate intensity (M): Arthralgia [2] | AEs of moderate intensity (M): Arthritis [2] | AEs of moderate intensity (M): Arthropathy [2] | AEs of moderate intensity (M): Back pain [2] | AEs of moderate intensity (M): Bronchitis [2] | AEs of moderate intensity (M): Carpal tunnel syndrome [2] | AEs of moderate intensity (M): Celiac disease [2] | AEs of moderate intensity (M): Dacryocanaliculitis [2] | AEs of moderate intensity (M): Depression [2] | AEs of moderate intensity (M): Dizziness [2] | AEs of moderate intensity (M): Epicondylitis [2] | AEs of moderate intensity (M): Fatigue [2] | AEs of moderate intensity (M): Gastritis [2] | AEs of moderate intensity (M): Hyperlipidemia [2] | AEs of moderate intensity (M): Hypoglycemic coma [2] | AEs of moderate intensity (M): Hypotension [2] | AEs of moderate intensity (M): Knee injury [2] | AEs of moderate intensity (M): Limb operation [2] | AEs of moderate intensity (M): Migraine [2] | AEs of moderate intensity (M): Muscle cramp [2] | AEs of moderate intensity (M): Nausea [2] | AEs of moderate intensity (M): Otitis [2] | AEs of moderate intensity (M): Paraesthesia [2] | AEs of moderate intensity (M): Pharyngitis [2] | AEs of moderate intensity (M): Pyrexia [2] | AEs of moderate intensity (M): Restless legs syndrome [2] | AEs of moderate intensity (M): ST elevation (ECG) [2] | AEs of moderate intensity (M): Sciatica [2] | AEs of moderate intensity (M): Stress disorder [2] | AEs of moderate intensity (M): Tendinous [2] | AEs of moderate intensity (M): Tonsillitis [2] | AEs of moderate intensity (M): Vision decreased [2] | AEs of moderate intensity (M): Vitreous hemorrhage [2]
0.045 ± 0.092 nmol/L: Increase in pre-dosing morning C-peptide plasma level vs baseline ([1]; Low-dose C-peptide, n=8)
S (2): AEs of severe intensity (S): Hypoglycemic coma [2]
S (1): AEs of severe intensity (S): Diarrhea [2] | AEs of severe intensity (S): Hepatic enzyme increase [2] | AEs of severe intensity (S): Hyperglycemia [2] | AEs of severe intensity (S): Pharyngitis [2] | AEs of severe intensity (S): Pregnancy [2]
0.2 to 6 nM: level at time molar ([1]; human, plasma, sc, during treatment, maximum in the high dose group, read-out: Plasma levels of C-peptide attained)
1: AEs of any severity: Allergic urticaria [2] | AEs of any severity: Anemia [2] | AEs of any severity: Aptyalism [2] | AEs of any severity: Arterial disorder [2] | AEs of any severity: Arthritis [2] | AEs of any severity: Asthma [2] | AEs of any severity: Bronchitis [2] | AEs of any severity: Burning sensation [2] | AEs of any severity: Cardiac arrhythmia [2] | AEs of any severity: Cardiac murmur [2] | AEs of any severity: Carpal tunnel syndrome [2] | AEs of any severity: Celiac disease [2] | AEs of any severity: Cough [2] | AEs of any severity: Dacryocanaliculitis [2] | AEs of any severity: Depression [2] | AEs of any severity: Dermatitis allergic [2] | AEs of any severity: Dry skin [2] | AEs of any severity: Epicondylitis [2] | AEs of any severity: Epistaxis [2] | AEs of any severity: Eye injury [2] | AEs of any severity: Eye operation [2] | AEs of any severity: Fibroma [2] | AEs of any severity: Flatulence [2] | AEs of any severity: Food poisoning [2] | AEs of any severity: Gastritis [2] | AEs of any severity: Hematuria [2] | AEs of any severity: Hemorrhage [2] | AEs of any severity: Hypercalcemia [2] | AEs of any severity: Hyperlipidemia [2] | AEs of any severity: Hypertension [2] | AEs of any severity: Hypotension [2] | AEs of any severity: Joint sprain ankle [2] | AEs of any severity: Knee injury [2] | AEs of any severity: Leucopenia [2] | AEs of any severity: Limb operation [2] | AEs of any severity: Lymph node enlargement [2] | AEs of any severity: Macular edema [2] | AEs of any severity: Menopausal disorder [2] | AEs of any severity: Menstration irregular [2] | AEs of any severity: Migraine [2] | AEs of any severity: Multiple sclerosis [2] | AEs of any severity: Muscle cramp [2] | AEs of any severity: Muscle spasm [2] | AEs of any severity: Muscular atrophy [2] | AEs of any severity: Musculoskeletal chest [2] | AEs of any severity: Pain in neck [2] | AEs of any severity: Pain in shoulder [2] | AEs of any severity: Panic disorder [2] | AEs of any severity: Restless legs syndrome [2] | AEs of any severity: Rheumarthritis [2] | AEs of any severity: ST elevation (ECG) [2] | AEs of any severity: Scar [2] | AEs of any severity: Sciatica [2] | AEs of any severity: Season allergy [2] | AEs of any severity: Sensory loss [2] | AEs of any severity: Sepsis [2] | AEs of any severity: Skin infection [2] | AEs of any severity: Stress disorder [2] | AEs of any severity: Sweating increased [2] | AEs of any severity: Synovial disorder [2] | AEs of any severity: Tachycardia (stress) [2] | AEs of any severity: Tendinitis [2] | AEs of any severity: Tendinous contracture [2] | AEs of any severity: Tendosynovitis stenosans [2] | AEs of any severity: Tooth extraction [2] | AEs of any severity: Tooth injury [2] | AEs of any severity: Torticollis [2] | AEs of any severity: Upper respiratory tract infection [2] | AEs of any severity: Vertigo [2] | AEs of any severity: Vision decreased [2] | AEs of any severity: Vitamin B12 deficiency [2] | AEs of any severity: Vitreous hemorrhage [2] | AEs possibly related to study drug: Hepatic enzyme increase [2] | AEs possibly related to study drug: Hypoglycemia [2] | AEs possibly related to study drug: Pain in extremity [2] | Number of AEs probably/possibly related to study drug: Hypoglycemia [2]
23: AEs of any severity: Nasopharyngitis [2]
well tolerated: Tolerability [2]
likely no significant accumulation: Accumulation following repeated C-peptide dosing ([1]; dose ranges of the study, 4.5 months)
4: Occurrences of hypoglycemic coma [2]
